We go through five compounds from patent US20250122191A1, “COMPOUNDS AS BCL-2 INHIBITORS” (Fochon Biosciences, Ltd, priority 2021, published 2025).

Common to all, as to format: cell-based
One experiment concerns Toledo cells. Kind of experiment: Cell proliferation assay (MTS), Toledo cells. The following applies: Homo sapiens, 72 h. The method, boiled down: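 Toledo cells (RPMI-1640, 10% FBS) seeded at 30000 cells/well, rested 4 h, then exposed 72 h at 37 °C, 5% CO2 to compound at nine final concentrations, 1.5–10000 nM. Viability by MTS (2 h), absorbance at 490 nm. IC50 from the concentration-response.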

A further experiment relates to RS4;11-BCL-2 G101V cells. Briefly: Cell proliferation assay (MTS), RS4;11-BCL-2 G101V engineered cells. The following applies: Homo sapiens, 120 h, read-out: RS4, 11 BCL2-G101V IC50. A digest of the protocol:
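Cells were plated, allowed to settle 4 h (G101V, F104L) or 24 h (D103E, D103Y), and treated with serially diluted compound (10000 down to 1.5 nM). After 120 h or 72 h respectively at 37 °C, MTS was added for 2 h and absorbance at 490 nm gave IC50 values.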

The test system of the next experiment is RS4;11-BCL-2 D103E cells. Kind of experiment: Cell proliferation assay (MTS), RS4;11-BCL-2 D103E engineered cells. The following applies: Homo sapiens, 72 h, read-out: RS4, 11 BCL2-D103E IC50. From the text:
MTS testing kit was purchased from Promega (Madison, WI, USA). The RPMI-1640, Fetal bovine serum and Penicillin-Streptomycin were purchased from BI (Biological Industries, Beit Haemek, Israel). Puromycin was purchased from Beyotime (shanghai, China). Dimethyl sulfoxide (DMSO) was purchased from Sigma (St. Louis., MO, USA). RS4;11-BCL-2 G101V (Cobioer Lot. #: CBD2021063013P4), RS4;11-BCL-2 D103E (Cobioer Lot. #: CBD2021063013P4), RS4;11-BCL-2 D103Y (Cobioer Lot. #: CBD2022012101P4) and RS4;11-BCL-2 F104L (Cobioer Lot. #: CBD2021063014P4) cells were cultured in RPMI1640 supplemented with 1 ug/mL puromycin, 100 U/mL Penicillin-Streptomycin and 10% FBS.
To investigate whether a compound is able to inhibit the activity of BCL-2 mutation in cells, a mechanism-based assay using engineered cell lines stably overexpressing BCL-2 mutation (RS4;11-BCL-2 G101V, RS4;11-BCL-2 D103E, RS4;11-BCL-2 D103Y, and RS4;11-BCL-2 F104L) was developed. In this assay, the inhibition of BCL-2 mutation was reflected by the inhibition of cell proliferation of engineered RS4;11 cells. Cells were plated into 96-well plates at optimized cell density (RS4;11-BCL-2 G101V: 5000 cells/well; RS4;11-BCL-2 D103E: 7500 cells/well; RS4;11-BCL-2 D103Y: 7500 cells/well; RS4;11-BCL-2 F104L: 5000 cells/well). Plates were incubated at 37° C., with 5% CO2 for 4 h (RS4;11-BCL-2 G101V, RS4;11-BCL-2 F104L) and 24 h (RS4;11-BCL-2 D103E, RS4;11-BCL-2 D103Y), respectively. Compounds were serially diluted and added to the plates with the final concentrations of 10000, 3333.3, 1111.1, 370.4, 123.5, 41.2, 13.7, 4.6 and 1.5 nM. Plates were incubated at 37° C., with 5% CO2 for 120 h (RS4; 11-BCL-2 G101V, RS4; 11-BCL-2 F104L) and 72 h (RS4;11-BCL-2 D103E, RS4;11-BCL-2 D103Y), respectively. 20 μl MTS was added into each well and the plates were incubated at 37° C., with 5% CO2 exactly for 2 h. The absorbance was measured by a microplate reader at 490 nm. IC50 values were calculated using GraphPad Prism 8.0 software.

As for `CCOc1nc2[nH]cc(F)c2cc1Oc1cc(N2CCC3(CC2)CC(N2CCN(Cc4ccc(OC)c(OC)c4)C[C@H]2c2ccccc2C(C)C)C3)ccc1C(=O)NS(=O)(=O)c1cnc(NC[C@H]2CC[C@](C)(O)CC2)c([N+](=O)[O-])c1` [Example 8, 4-(2-((R)-4-(3,4-dimethoxybenzyl)-2-(2-isopropylphenyl)piperazin-1-yl)-7-azaspiro[3.5]nonan-7-yl)-2-((6-ethoxy-3-fluoro-1H-pyrrolo[2,3-b]pyridin-5-yl)oxy)-N-((6-((((1r,4r)-4-hydroxy-4-methylcyclohexyl)methyl)amino)-5-nitropyridin-3-yl)sulfonyl)benzamide], the IC50 worked out at 1 nM in the experiment on Toledo cells, 1 nM in the experiment with RS4;11-BCL-2 G101V cells and 3 nM in the experiment with RS4;11-BCL-2 D103E cells.
For `COCCN1CCN(C2CC3(CCN(c4ccc(C(=O)NS(=O)(=O)c5cnc(NC[C@H]6CC[C@](C)(O)CC6)c([N+](=O)[O-])c5)c(Oc5cc6c(F)c[nH]c6nc5OC)c4)CC3)C2)[C@H](c2ccccc2C(C)C)C1` [Example 129, 2-((3-fluoro-6-methoxy-1H-pyrrolo[2,3-b]pyridin-5-yl)oxy)-N-((6-((((1r,4r)-4-hydroxy-4-methylcyclohexyl)methyl)amino)-5-nitropyridin-3-yl)sulfonyl)-4-(2-((R)-2-(2-isopropylphenyl)-4-(2-methoxyethyl)piperazin-1-yl)-7-azaspiro[3.5]nonan-7-yl)benzamide], the results for the 50% inhibitory concentration (IC50) in the experiment on Toledo cells and with RS4;11-BCL-2 D103E cells were 1 nM and 3 nM, respectively.
In the case of `COc1nc2[nH]cc(F)c2cc1Oc1cc(N2CCC3(CC2)CC(N2CCN(C[C@H]4COCCO4)C[C@H]2c2ccccc2C(C)C)C3)ccc1C(=O)NS(=O)(=O)c1cnc(NC[C@H]2CC[C@](C)(O)CC2)c([N+](=O)[O-])c1` [Example 328, 4-(2-((R)-4-(((S)-1,4-dioxan-2-yl)methyl)-2-(2-isopropylphenyl)piperazin-1-yl)-7-azaspiro[3.5]nonan-7-yl)-2-((3-fluoro-6-methoxy-1H-pyrrolo[2,3-b]pyridin-5-yl)oxy)-N-((6-((((1r,4r)-4-hydroxy-4-methylcyclohexyl)methyl)amino)-5-nitropyridin-3-yl)sulfonyl)benzamide], the IC50 in the experiment with RS4;11-BCL-2 G101V cells and with RS4;11-BCL-2 D103E cells was 1 nM in each case.
`CC(C)c1ccccc1[C@@H]1CN(Cc2ccc(S(C)(=O)=O)cc2)CCN1C1CC2(CCN(c3ccc(C(=O)NS(=O)(=O)c4cnc(NC[C@H]5CC[C@](C)(O)CC5)c([N+](=O)[O-])c4)c(Oc4cnc5[nH]cc(F)c5c4)c3)CC2)C1` [Example 329, 2-((3-fluoro-1H-pyrrolo[2,3-b]pyridin-5-yl)oxy)-N-((6-((((1r,4r)-4-hydroxy-4-methylcyclohexyl)methyl)amino)-5-nitropyridin-3-yl)sulfonyl)-4-(2-((R)-2-(2-isopropylphenyl)-4-(4-(methylsulfonyl)benzyl)piperazin-1-yl)-7-azaspiro[3.5]nonan-7-yl)benzamide]: the IC50 in the experiment with Toledo cells and with RS4;11-BCL-2 D103E cells was 1 nM throughout.
For the compound `CC(C)c1ccccc1[C@@H]1CN(C[C@H]2COCCO2)CCN1C1CC2(CCN(c3ccc(C(=O)NS(=O)(=O)c4cnc(NC[C@H]5CC[C@](C)(O)CC5)c([N+](=O)[O-])c4)c(Oc4cnc5[nH]cc(F)c5c4)c3)CC2)C1` [Example 330, 4-(2-((R)-4-(((S)-1,4-dioxan-2-yl)methyl)-2-(2-isopropylphenyl)piperazin-1-yl)-7-azaspiro [3.5]nonan-7-yl)-2-((3-fluoro-1H-pyrrolo[2,3-b]pyridin-5-yl)oxy)-N-((6-((((1r,4r)-4-hydroxy-4-methylcyclohexyl)methyl)amino)-5-nitropyridin-3-yl)sulfonyl)benzamide], the IC50 in the experiment on RS4;11-BCL-2 G101V cells and with RS4;11-BCL-2 D103E cells was 1 nM throughout.

A word on the IC50: it is the concentration that gives 50% inhibition.
